The text below walks through data of patent US6730503B1 (Roche Vitamins Inc., priority 1996, dated 2004).

The term remaining activity denotes the share of the control activity or signal that is left under treatment. Low readings indicate a large loss of activity, high ones a small loss of activity.

For data set [1], the target named is T1, Gluconobacter oxydans DSM No. 4025 alcohol/aldehyde dehydrogenase Enzyme A′, SEQ ID NO: 6 (Ketogulonicigenium vulgare, UniProt F9Y5Q6).
T1 construct: 579 aa precursor with 23 aa signal peptide; PMS-DCIP assay with n-propanol
T1 sequence (F9Y5Q6 with tags, fused parts or gaps): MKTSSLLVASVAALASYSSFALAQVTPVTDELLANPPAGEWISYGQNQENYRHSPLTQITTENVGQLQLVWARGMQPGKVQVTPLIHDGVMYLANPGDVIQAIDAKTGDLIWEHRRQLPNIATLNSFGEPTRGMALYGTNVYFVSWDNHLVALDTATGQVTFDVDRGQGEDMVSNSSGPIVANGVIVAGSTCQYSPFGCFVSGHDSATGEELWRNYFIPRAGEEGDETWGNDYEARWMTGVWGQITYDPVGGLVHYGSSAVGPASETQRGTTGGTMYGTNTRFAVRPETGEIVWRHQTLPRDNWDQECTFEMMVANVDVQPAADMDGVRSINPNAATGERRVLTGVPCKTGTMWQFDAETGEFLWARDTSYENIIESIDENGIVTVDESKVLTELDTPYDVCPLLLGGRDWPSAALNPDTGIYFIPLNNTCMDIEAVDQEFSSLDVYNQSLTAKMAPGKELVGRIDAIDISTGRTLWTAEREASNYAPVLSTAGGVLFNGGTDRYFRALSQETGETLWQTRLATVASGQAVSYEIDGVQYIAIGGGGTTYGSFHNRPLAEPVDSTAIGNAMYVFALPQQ
In words: Effect of inhibitors on activity of Enzyme A′ (PMS-DCIP assay, substrate n-propanol). The conditions noted are these: 10 mM inhibitor, 30 minutes at 25° C., pH 7.5, relative to blank incubation. In kind it is biochemical. The procedure: (§1) The enzymatic activity of the AADHs herein can be determined by methods known in the art, such as by photometric analysis using a spectrophotometer. In accordance with the present invention, one unit of enzyme activity was defined as the amount of enzyme which catalyzed the reduction of 1 μmole of DCIP per minute. The extinction coefficient of DCIP at pH 8.0 was taken as 15 mM^−1. […] A second cuvette, i.e., a reference cuvette, contains all the above components except the substrate. The reference cuvette is used to standardize the background absorbance resulting from a substrate-independent (endogenous) reaction.
(§2) Enzyme activities of each clone (cell free extract, soluble fraction and membrane fraction) were measured by photometric analysis. The cells of each clone were inoculated in 5 ml of MB medium in a test tube and cultivated at 30° C. for 24 hours. The resulting broth was transferred into 200 ml of fresh MB medium in 500 ml flask and the flask was shaken on the rotary flask shaker at 30° C. for 24 hours. […] Substrate-dependent decreasing rate of absorbance of DCIP at 600 nm was measured at 25° C. by using a Kontron spectrophotometer UVIKON 810.
(§3) The enzyme (about 0.05 mg/ml) in 25 mM HEPES buffer, pH 7.5, containing 5% sucrose was incubated with metal or inhibitor for 30 minutes at 25° C. […] Remaining activity is expressed as relative activity against blank incubation.

The target of data set [2] is T2, Gluconobacter oxydans DSM No. 4025 alcohol/aldehyde dehydrogenase Enzyme B, SEQ ID NO: 8 (Ketogulonicigenium vulgare, UniProt F9Y8N6).
T2 construct: 579 aa precursor with 23 aa signal peptide; PMS-DCIP assay with D-sorbitol
T2 sequence (F9Y8N6 24-579): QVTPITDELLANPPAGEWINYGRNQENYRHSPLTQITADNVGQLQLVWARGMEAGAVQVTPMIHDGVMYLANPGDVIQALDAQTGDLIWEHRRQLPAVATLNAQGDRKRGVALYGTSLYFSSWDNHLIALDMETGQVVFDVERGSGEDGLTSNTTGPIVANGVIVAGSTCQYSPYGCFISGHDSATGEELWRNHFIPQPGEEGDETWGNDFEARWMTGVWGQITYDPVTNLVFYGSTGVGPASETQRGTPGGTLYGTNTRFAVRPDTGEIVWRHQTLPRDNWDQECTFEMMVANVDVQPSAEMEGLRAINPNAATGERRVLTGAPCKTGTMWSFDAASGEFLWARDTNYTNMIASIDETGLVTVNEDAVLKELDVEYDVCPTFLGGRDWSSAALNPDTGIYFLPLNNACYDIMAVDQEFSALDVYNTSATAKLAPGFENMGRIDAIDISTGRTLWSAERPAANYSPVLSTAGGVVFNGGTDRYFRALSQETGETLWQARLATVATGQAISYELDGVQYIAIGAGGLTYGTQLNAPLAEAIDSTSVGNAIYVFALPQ
In words: Effect of inhibitors on activity of Enzyme B (PMS-DCIP assay, substrate D-sorbitol). Format: biochemical. The conditions noted are these: 10 mM inhibitor, 30 minutes at 25° C., pH 7.5, relative to blank incubation. The procedure: as §1, §2, §3

Data set [3] concerns Enzyme A″. In words: Effect of metals and inhibitors on enzyme activity, PMS-DCIP assay. In kind it is biochemical, G. oxydans DSM No. 4025.
Data set [4] deals with Enzyme A. The data set is described as above. Format: biochemical, G. oxydans DSM No. 4025.
Data set [5] concerns Enzyme B. The data set is described as above. In kind it is biochemical, G. oxydans DSM No. 4025.
Data set [6] deals with Enzyme A′. Described as above. Format: biochemical, G. oxydans DSM No. 4025.
In data set [7] the test system is Gluconobacter oxydans DSM No. 4025 AADH chimera Enzyme sA2 (Enzyme A residues 1-135, Enzyme B residues 136-180, Enzyme A residues 180-556; parents SEQ ID NO: …). In words: Kinetic properties of chimera Enzyme sA2. Format: biochemical. The conditions noted are these: read-out: Km (glucose). The text has this:
To further improve the chimeras, Enzyme A/B21, Enzyme A/B22, Enzyme A/B25 and Enzyme A/B31 in the view point of the preferable codon usage, the C-terminal two thirds consisting of Enzyme B residues were replaced with the C-terminal two thirds consisting of Enzyme A residues. Enzyme A/B21, Enzyme A/B22, Enzyme A/B25 and Enzyme A/B31 genes were used for constructing new chimera genes of Enzyme sA21 (Enzyme A ammo acid residue Nos. 1-128, Enzyme B amino acid residue Nos. 129-180 and Enzyme A amino acid residue Nos. 180-556), Enzyme sA22 (Enzyme A amino acid residue Nos. 1-125, Enzyme B amino acid residue Nos. 126-180 and Enzyme A amino acid residue Nos. 180-556), Enzyme sA2 (Enzyme A amino acid residue Nos. 1-135, Enzyme B amino acid residue Nos. 136-180 and Enzyme A amino acid residue Nos. 180-556) and Enzyme sB (Enzyme A amino acid residue Nos. 1-95, Enzyme B amino acid residue Nos. 96-180 and Enzyme A amino acid residue Nos. 180-556) (FIG. 4). […]

Substrate in data set [8]: OCC1(O)OC[C@H](O)[C@@H](O)[C@@H]1O
In words: purified protein, by the assay type. The conditions noted are these: other: Enzyme A.

[9] abbreviates: 5 mM compound, 30 minutes at 25° C., substrate L-Sorbose, relative to blank incubation.
Setting [10] is: 5 mM compound, 30 minutes at 25° C., substrate D-Sorbitol, relative to blank incubation.
The mark [11] stands for this setting: 5 mM compound, 30 minutes at 25° C., substrate n-Propanol, relative to blank incubation.
Where [12] appears, read: 0.5 mM compound, 30 minutes at 25° C., substrate L-Sorbose, relative to blank incubation.
The mark [13] stands for this setting: 1 mM compound, 30 minutes at 25° C., substrate L-Sorbose, relative to blank incubation.
[14] abbreviates: 1 mM compound, 30 minutes at 25° C., substrate D-Sorbitol, relative to blank incubation.
The mark [15] stands for this setting: 1 mM compound, 30 minutes at 25° C., substrate n-Propanol, relative to blank incubation.

Like-named read-outs stand apart in the source and are kept apart here.

On to `O=C(O)CN(CCOCCOCCN(CC(=O)O)CC(=O)O)CC(=O)O` [EGTA], for which the remaining activity at 10000 µM is 16.7% in data set [1] and 74% in data set [2].

On to `O=S(=O)([O-])[O-].[Ni+2]` [NiSO4], for which the Relative remaining activity in data set [3] (setting [9]) is given as 90.3; in data set [4] (setting [9]), 42.7; in data set [5] (setting [10]), 79.4; in data set [6] (setting [11]), 59.7.

`[Cl][Fe]([Cl])[Cl]` [FeCl3]: the Relative remaining activity in data set [3] (setting [9]) was 44.7; in data set [4] (setting [9]), 7.8; in data set [5] (setting [10]) it was 0.0; in data set [6] (setting [11]), 0.0.

As for `OC[C@H]1OC(O)[C@H](O)[C@@H](O)[C@@H]1O` (stereo partly shown) [glucose], the Km in data set [7] was found to be 20 mM.

As for `[Cl][Cu][Cl]` [CuCL2], the Relative remaining activity in data set [3] (setting [9]), in data set [4] (setting [9]), in data set [5] (setting [10]) and in data set [6] (setting [11]) was 0.0 each time.

On to `[Cl-].[Cl-].[Zn+2]` [ZnCl2], for which the Relative remaining activity in data set [3] (setting [9]) came out at 19.2; in data set [4] (setting [9]), 1.5; in data set [5] (setting [10]), 0.0; in data set [6] (setting [11]) it was 6.1.

Regarding `[Cl-].[Cl-].[Mg+2]` [MgCl2], the Relative remaining activity was determined as 78.8 in data set [3] (setting [9]), 96.3 in data set [4] (setting [9]), 100.0 in data set [5] (setting [10]) and 85.3 in data set [6] (setting [11]).

Turning to `[Ca+2].[Cl-].[Cl-]` [CaCl2], the Relative remaining activity in data set [3] (setting [9]) was 123.0; in data set [4] (setting [9]), 98.8; in data set [5] (setting [10]) it was 102.9; in data set [6] (setting [11]) it was 95.3.

For the molecule `[Cl][Mn][Cl]` [MmCl2], the Relative remaining activity in data set [3] (setting [9]) was found to be 0.0; in data set [4] (setting [9]) it was 0.0; in data set [5] (setting [10]), 0.0; in data set [6] (setting [11]), 45.7.

With `[Cl][Fe][Cl]` [FeCl2], the Relative remaining activity stood at 0.0 in data set [3] (setting [9]), 16.6 in data set [4] (setting [9]), 5.9 in data set [5] (setting [10]) and 0.0 in data set [6] (setting [11]).

Turning to `Cl.NO` [Hydroxylamine-HCl], the Relative remaining activity amounted to 97.2 in data set [3] (setting [12]); 104.6 in data set [4] (setting [12]); 102.1 in data set [5] (0.5 mM compound, 30 minutes at 25° C., substrate D-Sorbitol, relative to blank incubation); 98.8 in data set [6] (0.5 mM compound, 30 minutes at 25° C., substrate n-Propanol, relative to blank incubation).

In the case of `O=C(O)CI` [ICH2COONa], the Relative remaining activity in data set [3] (setting [13]) is on record as 95.3; in data set [4] (setting [13]) it was 97.2; in data set [5] (setting [14]), 100.2; in data set [6] (setting [15]), 78.3.

As for `[F-].[Na+]` [NaF], the Relative remaining activity in data set [3] (setting [13]) was 94.9; in data set [4] (setting [13]), 98.2; in data set [5] (setting [14]) it was 100.8; in data set [6] (setting [15]) it was 97.1.

Consider `[Cl-].[Cl-].[Co+2]` [CoCl2], for which the Relative remaining activity is 46.9 in data set [3], 16.6 in data set [4], 23.6 in data set [5] and 7.9 in data set [6].

B1: Gluconobacter oxydans DSM No. 4025 alcohol/aldehyde dehydrogenase Enzyme A, wild type, SEQ ID NO: 5 (Ketogulonicigenium vulgare WSH-001) (protein)
chain: QVTPVTDELLANPPAGEWISYGQNQENYRHSPLTQITTENVGQLQLVWARGMQPGKVQVTPLIHDGVMYLANPGDVIQAIDAKTGDLIWEHRRQLPNIATLNSFGEPTRGMALYGTNVYFVSWDNHLVALDTATGQVTFDVDRGQGEDMVSNSSGPIVANGVIVAGSTCQYSPFGCFVSGHDSATGEELWRNYFIPRAGEEGDETWGNDYEARWMTGAWGQITYDPVTNLVHYGSTAVGPASETQRGTPGGTLYGTNTRFAVRPDTGEIVWRHQTLPRDNWDQECTFEMMVTNVDVQPSTEMEGLQSINPNAATGERRVLTGVPCKTGTMWQFDAETGEFLWARDTNYQNMIESIDENGIVTVNEDAILKELDVEYDVCPTFLGGRDWPSAALNPDSGIYFIPLNNVCYDMMAVDQEFTSMDVYNTSNVTKLPPGKDMIGRIDAIDISTGRTLWSVERAAANYSPVLSTGGGVLFNGGTDRYFRALSQETGETLWQTRLATVASGQAISYEVDGMQYVAIAGGGVSYGSGLNSALAGERVDSTAIGNAVYVFALPQ
B1: the Km in data set [8] worked out at 36 mM mM.
